Assay results: patent US20220289698A1, “INHIBITORS OF HUMAN ATGL” (Karl-Franzens-Universität Graz, priority 2019, published 2022)
Where two headings read alike, the source gives them in different places.

Tests used:
human ATGL = target: T1, human ATGL (Homo sapiens, UniProt Q96AD5); test: TG hydrolase activity, Expi cell lysates expressing human ATGL + CGI-58, radiolabelled triolein; format: biochemical
T1 construct: made in house; host or cells: Expi cells (lysate, not purified)
T1 sequence (Q96AD5 1-504): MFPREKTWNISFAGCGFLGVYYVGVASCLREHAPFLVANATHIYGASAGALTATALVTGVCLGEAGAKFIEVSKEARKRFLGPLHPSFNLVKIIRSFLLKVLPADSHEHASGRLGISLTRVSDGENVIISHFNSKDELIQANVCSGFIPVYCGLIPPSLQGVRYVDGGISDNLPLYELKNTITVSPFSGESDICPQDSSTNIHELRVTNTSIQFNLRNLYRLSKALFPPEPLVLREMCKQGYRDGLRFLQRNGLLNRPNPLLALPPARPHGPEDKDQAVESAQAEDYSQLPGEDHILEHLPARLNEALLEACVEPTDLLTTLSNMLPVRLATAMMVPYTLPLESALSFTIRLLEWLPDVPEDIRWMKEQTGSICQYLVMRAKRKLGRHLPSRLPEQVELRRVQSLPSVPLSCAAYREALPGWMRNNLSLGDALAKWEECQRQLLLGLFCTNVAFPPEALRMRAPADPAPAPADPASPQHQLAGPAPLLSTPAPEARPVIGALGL
Procedure, shortened: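 Lysates of Expi cells expressing ATGL, supplemented with purified CGI-58 and inhibitor in DMSO, incubated 1 h at 37 °C with emulsified radiolabelled triolein (330 μM) in potassium phosphate pH 7.0 with 5% FA-free BSA. Released FA counted by liquid scintillation after phase extraction; IC50 versus DMSO control, duplicates.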

murine ATGL = target: T2, murine ATGL (Mus musculus, UniProt Q8BJ56); test: TG hydrolase activity, Expi lysates expressing mouse ATGL + CGI-58, radiolabelled triolein; format: biochemical
T2 construct: made in house; host or cells: Expi cells (lysate)
T2 sequence (Q8BJ56 1-486): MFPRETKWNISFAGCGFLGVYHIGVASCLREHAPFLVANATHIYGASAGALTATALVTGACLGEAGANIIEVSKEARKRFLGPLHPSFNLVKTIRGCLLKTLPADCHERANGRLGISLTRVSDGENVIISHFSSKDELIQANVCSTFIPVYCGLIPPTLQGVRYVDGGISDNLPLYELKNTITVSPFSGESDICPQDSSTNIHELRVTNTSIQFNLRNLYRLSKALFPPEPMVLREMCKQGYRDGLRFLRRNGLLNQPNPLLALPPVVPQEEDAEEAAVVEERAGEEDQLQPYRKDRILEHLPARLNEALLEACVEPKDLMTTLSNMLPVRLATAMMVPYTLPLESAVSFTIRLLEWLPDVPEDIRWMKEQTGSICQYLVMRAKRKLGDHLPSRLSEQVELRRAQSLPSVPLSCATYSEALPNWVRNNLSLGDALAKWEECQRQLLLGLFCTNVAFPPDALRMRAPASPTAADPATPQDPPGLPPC
Procedure, shortened: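 Lysates of Expi cells overexpressing mouse ATGL, with added recombinant CGI-58, were incubated with inhibitor at 50 μM. Substrate was emulsified radiolabelled triolein with PC/PI in 100 mM potassium phosphate pH 7.0 and 5% FA-free BSA, 1 h at 37° C. Released FA were extracted and counted by scintillation; triplicates, DMSO control.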

[1] = Example 237, read-out: Inhibition of human ATGL − IC50
[2] = 50 μM compound, Example 237, read-out: Inhibition of murine ATGL at 50 μM − mean [%]
[3] = Example 238, read-out: Inhibition of human ATGL IC50
[4] = 50 μM, Example 238, read-out: % Inhibition of murine ATGL at 50 μM

Structure (SMILES)	IC50 (human ATGL; [1]) [µM]	inhibition at 50 µM (murine ATGL; [2]) [%]	melting point [°C]	IC50 (human ATGL; [3]) [µM]	inhibition at 50 µM (murine ATGL; [4]) [%]
CCCCOC(=O)c1cccc(-c2ccc(OCC)cc2)n1 [Example 2]	20	5.9	78 to 81		
CCOC(=O)c1cccc(-c2ccc(OCCOC)cc2)n1 [Example 8]	10	9.1	89 to 94		
COCCOc1ccc(-c2cccc(C(=O)OC(C)C)n2)cc1 [Example 11]	5	1.8	75 to 77		
CC(C)OC(=O)c1cccc(-c2ccc(CO)cc2)n1 [Example 12]	25	0	129 to 131		
CCOC(=O)c1cc(C)cc(-c2ccc(OCC)cc2)n1 [Example 14]	10	6.1	90 to 91		
COCCOCCOc1ccc(-c2cccc(C(=O)OC(C)C)n2)cc1 [Example 15]	6	0	45 to 46		
CCOCCOc1ccc(-c2cccc(C(=O)OC(C)C)n2)cc1 [Example 16]	3	18.1	46 to 47		
CCS(=O)(=O)c1ccc(-c2cccc(C(=O)OC(C)C)n2)cc1 [Example 18]	10	0	126 to 129		
COCc1ccc(-c2cccc(C(=O)OC(C)C)n2)cc1 [Example 19]	3	3.9	55 to 58		
CCOc1ccc(-c2cccc(C(=O)OC3CC3)n2)cc1 [Example 21]	5	0	114 to 115		
CC(=O)Oc1ccc(-c2cccc(C(=O)OC(C)C)n2)cc1 [Example 23]	15	16	71 to 75		
CCOc1ccc(-c2cc(OC)cc(C(=O)OC)n2)cc1 [Example 26]	12	23.1	94 to 103		
CCCOc1ccc(-c2cccc(C(=O)OC(C)C)n2)cc1 [Example 27]	3	0	90 to 93		
CCOc1ccc(-c2cccc(C(=O)OC(C)(C)C)n2)cc1 [Example 28]	12	0	69 to 73		
CCOC(=O)c1ccc(-c2cccc(C(=O)OC(C)C)n2)cc1 [Example 29]	6	0	56 to 62		
CCOc1ccc(-c2cccc(C(=O)OC(C)CC)n2)cc1 (centres unmarked) [Example 30]	8	0	49 to 51		
CCCOC(=O)c1cccc(-c2ccc(OCC)cc2)n1 [Example 31]	12	6	80 to 84		
C=CCOC(=O)c1cccc(-c2ccc(OCC)cc2)n1 [Example 32]	6	18.6	65 to 70		
CC(C)OC(=O)c1cccc(-c2ccc(OC3CCCCO3)cc2)n1 (centres unmarked) [Example 36]	8	9.6	105 to 107		
CC(C)OC(=O)c1cccc(-c2ccc(OC(F)(F)F)cc2)n1 [Example 37]	10	22.8	43 to 47		
CC(C)OC(=O)c1cccc(-c2ccc(OCC(F)(F)F)cc2)n1 [Example 38]	5	5.7	70 to 75		
C#CCOC(=O)c1cccc(-c2ccc(OCC)cc2)n1 [Example 51]	15	31.8	76 to 78		

Structure (SMILES)	IC50 (human ATGL; [1]) [µM]	inhibition at 50 µM (murine ATGL; [2]) [%]	melting point [°C]	IC50 (human ATGL; [3]) [µM]	inhibition at 50 µM (murine ATGL; [4]) [%]
CCc1ccc(-c2cccc(C(=O)OC(C)C)n2)cc1 [Example 55]	3	1.4	82 to 84		
COc1cc(C(=O)OC(C)C)nc(-c2ccc(C(F)(F)F)cc2)c1 [Example 58]	7	0	55 to 56		
C#CC(C)OC(=O)c1cccc(-c2ccc(CCC)cc2)n1 (centres unmarked) [Example 70]	3	0	90 to 92		
CC(C)OC(=O)c1cccc(/C=C/c2ccccc2)n1 [Example 76]	10	5.1	66 to 71		
CCCCCCOc1ccc(-c2cc(OC)cc(C(=O)OC(C)C)n2)cc1 [Example 83]	2.5	0.1	53 to 55		
CC(C)OC(=O)c1cccc(-c2ccc(-c3nc4ccccc4n3-c3ccccc3)cc2)n1 [Example 84]	10	0	172 to 176		
CCCCCOc1ccc(-c2cccc(C(=O)OC(C)C)n2)cc1 [Example 85]	3	0	63 to 65		
CC(C)OC(=O)c1cccc(-c2ccc(Cl)cc2)n1 [Example 87]	3	0	94 to 95		
CCOC(=O)c1cccc(-c2ccc(C#N)cc2)n1 [Example 88]	25	0	108 to 109		
CCCCCCOc1ccc(-c2cccc(C(=O)OC)n2)cc1 [Example 89]	25	0	68 to 69		
COc1ccc(C#Cc2ccc(-c3cccc(C(=O)OC(C)C)n3)cc2)cc1 [Example 92]	3		152 to 155		
CCCCc1ccc(-c2cccc(C(=O)OC(C)C)n2)cc1 [Example 94]	2	0	51 to 55		
CC(C)COc1ccc(-c2cccc(C(=O)OC(C)C)n2)cc1 [Example 96]	10		103 to 107		
CCOC(=O)c1csc(-c2ccc(OCc3ccccc3)cc2)n1 [Example 187, Ethyl 2-(4-(benzyloxy)phenyl)thiazole-4-carboxylate]	15	10.2	112 to 115		
CCOc1ccc(-c2cccc(C(=O)OCc3ccsc3)n2)cc1 [Example 197, Thiophen-3-ylmethyl 6-(4-ethoxyphenyl)picolinate]			90 to 93	30	75
CCOc1ccc(-c2cccc(C(=O)OCc3ccoc3)n2)cc1 [Example 198, Furan-3-ylmethyl 6-(4-ethoxyphenyl)picolinate]			97 to 101	20	82
CCC(C)OC(=O)c1cc(OC)cc(-c2ccc(OC(C)C)cc2)n1 (centres unmarked) [Example 202, sec-Butyl 6-(4-Isopropoxyphenyl)-4-methoxypicolinate]			68	3	
COc1cc(C(=O)OC2CCC2)nc(-c2ccc(OC(C)C)cc2)c1 [Example 203, Cyclobutyl 6-(4-isopropoxyphenyl)-4-methoxypicolinate]			116 to 118	10	
[2H]C([2H])([2H])C([2H])(OC(=O)c1cc(OC)cc(-c2ccc(OC(C)C)cc2)n1)C([2H])([2H])[2H] [Example 204, Propan-2-yl-d7 6-(4-isopropoxyphenyl)-4-methoxypicolinate]			70 to 72	1	
CCc1ccc(-c2cc(OC)cc(C(=O)OC(C)C)n2)cc1 [Example 205, Isopropyl 6-(4-ethylphenyl)-4-methoxypicolinate]			51	3	
COc1ccc(-c2cc(OC)cc(C(=O)OC(C)C)n2)cc1 [Example 206, Isopropyl 4-methoxy-6-(4-methoxyphenyl)picolinate]			59 to 61	5	
